Source: ChEMBL document CHEMBL6182839, “Exploration of the cytotoxic and microtubule disruption potential of novel imidazo[1,5-a]pyridine-based chalcones” (RSC Med Chem, 2025)
The source made the active and inactive calls. The rule behind the calls is not given here.

What was measured:
MDA-MB-231 [1] = experiment: Induction of apoptosis in human MDA-MB-231 cells assessed as necrotic cells at 10 uM incubated for 24 hrs by annexin V-FITC/PI staining based flow cytometry analysis (reference value: 0.0%); type: functional
MDA-MB-231 [2] = experiment: Induction of apoptosis in human MDA-MB-231 cells assessed as late apoptotic cells at 5 uM incubated for 24 hrs by annexin V-FITC/PI staining based flow cytometry analysis (reference value: 0.2%); type: functional
[3] = Cytotoxicity against HEK cells assessed as inhibition of cell growth incubated for 48 hrs by MTT assay; type: toxicity, cell-based; details: human
MDA-MB-231 [4] = experiment: Induction of apoptosis in human MDA-MB-231 cells assessed as early apoptotic cells at 10 uM incubated for 24 hrs by annexin V-FITC/PI staining based flow cytometry analysis (reference value: 1.4%); type: functional
MDA-MB-231 [5] = experiment: Induction of apoptosis in human MDA-MB-231 cells assessed as viable cells at 10 uM incubated for 24 hrs by annexin V-FITC/PI staining based flow cytometry analysis (reference value: 98.4%); type: functional; details: read-out: Activity
RKO = experiment: Cytotoxicity against human RKO cells assessed as inhibition of cell growth incubated for 48 hrs by MTT assay; type: functional, cell-based
MDA-MB-231 [6] = experiment: Induction of intracellular ROS generation in human MDA-MB-231 cells at 5 to 10 uM incubated for 24 hrs by H2DCFDA staining based flow cytometric analysis; type: functional, cell-based; details: dose 5-10 µM
[7] = Selectivity ratio of IC50 for HEK cells to IC50 for human HepG2 cells; type: toxicity; details: HEK cells versus HepG2 cells, read-out: Ratio IC50
MDA-MB-231 [8] = experiment: Cytotoxicity against human MDA-MB-231 cells assessed as inhibition of cell growth incubated for 48 hrs by MTT assay; type: functional, cell-based; details: MDA-MB-231, 48 h
HepG2 = experiment: Cytotoxicity against human HepG2 cells assessed as inhibition of cell growth incubated for 48 hrs by MTT assay; type: functional, cell-based; details: HepG2, 48 h
[9] = Selectivity ratio of IC50 for HEK cells to IC50 for human MDA-MB-231 cells; type: toxicity; details: HEK cells versus MDA-MB-231 cells, read-out: Ratio IC50
[10] = Selectivity ratio of IC50 for HEK cells to IC50 for human PC-3 cells; type: toxicity; details: HEK cells versus PC-3 cells, read-out: Ratio IC50
MDA-MB-231 [11] = experiment: Induction of apoptosis in human MDA-MB-231 cells assessed as late apoptotic cells at 10 uM incubated for 24 hrs by annexin V-FITC/PI staining based flow cytometry analysis (reference value: 0.2%); type: functional
Mitochondrial membrane = experiment: Induction of mitochondrial membrane potential depolarization in human MDA-MB-231 cells at 5 to 10 uM incubated for 24 hrs by JC-1 dye based flow cytometric analysis; details: dose 5-10 µM
MG-63 = experiment: Cytotoxicity against human MG-63 cells assessed as inhibition of cell growth incubated for 48 hrs by MTT assay; type: functional, cell-based; details: MG-63, 48 h
Tubulin (Homo sapiens) [12] = molecular target: T1, Tubulin (Homo sapiens) (UniProt P68371+Q9H4B7+P0DPH7+P68366+Q13509+Q71U36+P04350+Q3ZCM7+P07437+P68363+Q9BQE3+Q6PEY2+Q13885+Q9BVA1+Q9BUF5); experiment: Disruption of microtubule network in human MDA-MB-231 cells assessed as decrease in beta-tubulin expression incubated for 24 hrs by immunofluorescence staining based confocal microscopic analysis; type: cell-based; details: dose 5-10 µM
PC-3 = experiment: Cytotoxicity against human PC-3 cells assessed as inhibition of cell growth incubated for 48 hrs by MTT assay; type: functional, cell-based; details: PC-3, 48 h
MDA-MB-231 [13] = experiment: Induction of apoptosis in human MDA-MB-231 cells assessed as early apoptotic cells at 5 uM incubated for 24 hrs by annexin V-FITC/PI staining based flow cytometry analysis (reference value: 1.4%); type: functional
MDA-MB-231 [14] = experiment: Induction of apoptosis in human MDA-MB-231 cells assessed as viable cells at 5 uM incubated for 24 hrs by annexin V-FITC/PI staining based flow cytometry analysis (reference value: 98.4%); type: functional; details: read-out: Activity
MDA-MB-231 [15] = experiment: Induction of apoptosis in human MDA-MB-231 cells assessed as necrotic cells at 5 uM incubated for 24 hrs by annexin V-FITC/PI staining based flow cytometry analysis (reference value: 0.0%); type: functional
Tubulin (Homo sapiens) [16] = molecular target: T1, Tubulin (Homo sapiens); experiment: Disruption of microtubule network in human MDA-MB-231 cells assessed as decrease in beta-tubulin expression at 5 to 10 uM incubated for 24 hrs by immunofluorescence staining based confocal microscopic analysis; type: cell-based; details: dose 5-10 µM

Row | Structure (SMILES) | IC50 (RKO) [µM] | IC50 (MDA-MB-231 [8]) [µM] | IC50 (HepG2) [µM] | IC50 (MG-63) [µM] | IC50 (PC-3) [µM] | further results
1 | COc1cc(C(=O)/C=C/c2nc(-c3ccc(Cl)cc3)n3ccccc23)cc(OC)c1OC | 18.8 | 4.23 | 20.8 | 6.23 | 17.9 | Activity (MDA-MB-231 [1]): 0.3%; Activity (MDA-MB-231 [2]): 5.5%; IC50 at 48 h [3]: 50 µM; Activity (MDA-MB-231 [4]): 18.6%; viability at 10 µM (MDA-MB-231 [5]): 67.2%; Activity (MDA-MB-231 [6]): Active; selectivity ratio [7]: 2; selectivity ratio [9]: 11; selectivity ratio [10]: 3; Activity (MDA-MB-231 [11]): 13.9%; Activity (Mitochondrial membrane): Active; Activity (Tubulin (Homo sapiens) [12]): Dose-dependent-effect; Activity (MDA-MB-231 [13]): 3.8%; viability at 5 µM (MDA-MB-231 [14]): 90.6%; Activity (MDA-MB-231 [15]): 0%; Activity (Tubulin (Homo sapiens) [16]): Active
2 | COC(=O)Nc1nc2cc(C(=O)c3cccs3)ccc2[nH]1 [NOCODAZOLE] | 2.56 | 3.2 | 2.15 | 1.25 | 2.89 | Activity (MDA-MB-231 [1]): 0%; Activity (MDA-MB-231 [4]): 5.6%; viability at 10 µM (MDA-MB-231 [5]): 46%; Activity (MDA-MB-231 [6]): Active; Activity (MDA-MB-231 [11]): 48.3%; Activity (Mitochondrial membrane): Active
3 | O=C(/C=C/c1nc(-c2ccc(Cl)cc2)n2ccccc12)c1ccc(Cl)c(Cl)c1 | 7.83 | 3.26 | 4.57 | 7.89 | 14.9 | Activity (MDA-MB-231 [1]): 0.3%; Activity (MDA-MB-231 [2]): 26.9%; IC50 at 48 h [3]: 62 µM; Activity (MDA-MB-231 [4]): 21.2%; viability at 10 µM (MDA-MB-231 [5]): 48.6%; Activity (MDA-MB-231 [6]): Active; selectivity ratio [7]: 13; selectivity ratio [9]: 19; selectivity ratio [10]: 4; Activity (MDA-MB-231 [11]): 29.9%; Activity (Mitochondrial membrane): Active; Activity (Tubulin (Homo sapiens) [12]): Dose-dependent-effect; Activity (MDA-MB-231 [13]): 5.1%; viability at 5 µM (MDA-MB-231 [14]): 66.5%; Activity (MDA-MB-231 [15]): 1.6%; Activity (Tubulin (Homo sapiens) [16]): Active
4 | COc1cc(C(=O)/C=C/c2nc(-c3ccc(F)cc3)n3ccccc23)cc(OC)c1OC | > 50 | > 50 | > 50 | > 50 | > 50 | –
5 | COc1ccc(C(=O)/C=C/c2nc(-c3ccc(C(F)(F)F)cc3)n3ccccc23)cc1OC | > 50 | > 50 | > 50 | > 50 | > 50 | –
6 | COc1ccc(-c2nc(/C=C/C(=O)c3ccc(OC)c(OC)c3)c3ccccn23)cc1 | > 50 | > 50 | > 50 | 20.5 | > 50 | –
7 | O=C(/C=C/c1nc(-c2ccc(F)cc2)n2ccccc12)c1ccc(F)c(F)c1 | > 50 | > 50 | > 50 | 11.6 | > 50 | –
8 | COc1ccc(C(=O)/C=C/c2nc(-c3ccc(F)cc3)n3ccccc23)cc1OC | > 50 | > 50 | > 50 | > 50 | > 50 | –
9 | O=C(/C=C/c1nc(-c2ccc(F)cc2)n2ccccc12)c1ccc(Cl)c(Cl)c1 | > 50 | > 50 | > 50 | 10.2 | > 50 | –
10 | COc1ccc(-c2nc(/C=C/C(=O)c3ccc(F)c(F)c3)c3ccccn23)cc1 | > 50 | > 50 | > 50 | 32.6 | > 50 | –
11 | COc1ccc(-c2nc(/C=C/C(=O)c3ccc(Cl)c(Cl)c3)c3ccccn23)cc1 | > 50 | > 50 | > 50 | 46.3 | > 50 | –
12 | O=C(/C=C/c1nc(-c2ccc(C(F)(F)F)cc2)n2ccccc12)c1ccc(Cl)c(Cl)c1 | > 50 | > 50 | > 50 | > 50 | > 50 | –
13 | COc1ccc(-c2nc(/C=C/C(=O)c3cc(OC)c(OC)c(OC)c3)c3ccccn23)cc1 | > 50 | > 50 | > 50 | 21.3 | > 50 | –
14 | COc1ccc(C(=O)/C=C/c2nc(-c3ccc(Cl)cc3)n3ccccc23)cc1OC | > 50 | > 50 | > 50 | > 50 | > 50 | –
15 | O=C(/C=C/c1nc(-c2ccccc2)n2ccccc12)c1ccc(Cl)c(Cl)c1 | > 50 | > 50 | > 50 | 45.6 | > 50 | –
16 | O=C(/C=C/c1nc(-c2ccccc2)n2ccccc12)c1ccc(F)c(F)c1 | > 50 | > 50 | > 50 | 85.2 | > 50 | –
17 | O=C(/C=C/c1nc(-c2ccc(C(F)(F)F)cc2)n2ccccc12)c1ccc(F)c(F)c1 | > 50 | > 50 | > 50 | > 50 | > 50 | –
18 | COc1ccc(C(=O)/C=C/c2nc(-c3ccccc3)n3ccccc23)cc1OC | > 50 | > 50 | > 50 | 56.3 | > 50 | –
19 | COc1cc(C(=O)/C=C/c2nc(-c3ccc(C(F)(F)F)cc3)n3ccccc23)cc(OC)c1OC | > 50 | > 50 | > 50 | > 50 | > 50 | –
20 | COc1cc(C(=O)/C=C/c2nc(-c3ccccc3)n3ccccc23)cc(OC)c1OC | > 50 | 12.3 | 13.6 | 12.6 | > 50 | –
21 | O=C(/C=C/c1nc(-c2ccc(Cl)cc2)n2ccccc12)c1ccc(F)c(F)c1 | > 50 | > 50 | > 50 | > 50 | > 50 | –
